{
  "source": "patent US8163509B2",
  "about": "“Biological markers predictive of anti-cancer response to insulin-like growth factor-1 receptor kinase inhibitors” (The Regents of the University of Colorado, A Body Corporate, priority 2008, dated 2012)",
  "system": "GEO CRC cell line",
  "test": "SRB proliferation assay, 72 h",
  "assay_type": "cell-based",
  "conditions": "Homo sapiens",
  "protocol": "Cell proliferation was evaluated by SRB following exposure to OSI-906 for 72 hours. Cells were plated at an optimized density in 96-well plates, incubated overnight at 37° C., and then exposed to a serial dilution of OSI-906. After 72 hours incubation, cells were fixed with trichloroacetic acid and an SRB was performed as described in materials and methods.\nCell Lines and Culture: Twenty-seven human colon cancer cell lines, were obtained from American Type Culture Collection (Manassas, Va.). The GEO cells were a generous gift from Dr. Fortunato Ciardiello (Cattedra di Oncologia Medica, Dipartimento Medico-Chirurgico di Internistica Clinica e Sperimentale “F Magrassi e A Lanzara,” Seconda Università degli Studi di Napoli, Naples). All cells except GEO were grown in RPMI medium supplemented with 10% fetal bovine serum, 1% non-essential amino acids, 1% penicillin/streptomycin and were maintained at 37° C. in an incubator under an atmosphere containing 5% CO2. GEO cells were grown in DMEM/F12 supplemented with 10% fetal bovine serum, 1% non-essential amino acids, 1% penicillin/streptomycin. The cells were routinely screened for the presence of mycoplasma (MycoAlert, Cambrex Bio Science, Baltimore, Md.) and were exposed to OSI-906 when they reached approximately 70% confluence. OSI-906 was provided by OSI Pharmaceuticals, (Boulder, Colo.) and prepared as a 10 mM stock solution in DMSO.",
  "note": "Like-named read-outs stand apart in the source and are kept apart here.",
  "data": [
    {"smiles": "C[C@]1(O)C[C@@H](c2nc(-c3ccc4ccc(-c5ccccc5)nc4c3)c3c(N)nccn32)C1", "note": "[OSI-906, cis-3-[8-amino-1-(2-phenyl-quinolin-7-yl)-imidazo[1,5-a]pyrazin-3-yl]-1-methyl-cyclobutanol]", "values": [
      {"measurement": "IC50", "setting": "72 hours, read-out: IC50, proliferation, OSI-906 (SRB)", "result": "≤ 1.5", "unit": "µM"},
      {"measurement": "IC50", "setting": "read-out: S/I/R to OSI-906", "result": "≤ 1.5", "unit": "µM"}
    ]}
  ]
}
